Consider 14 compounds from US9572881B2, “Halogenated compounds for photodynamic therapy” (Nanoquantum Sciences, Inc., priority 2012, dated 2017).

Data set [1] in a line: Fluorescence emission spectra and quantum yield relative to HITC. It counts as physicochemical. The conditions noted are these: for QY (fluor): given as fraction in synthesis example. The method, then: Fluorescence spectra for the dyes were determined at RT on a Varian Cary Eclipse spectrofluorometer in a standard 1-cm quartz cell. The spectra were corrected. All concentrations of the fluorophores were chosen to be between 0.2 and 1.0 μM.
For the determination of the quantum yields (QY), the integrated relative intensities of the dyes or dye-protein conjugates, were measured against HITC as the reference. All absorbances at excitation wavelength (λexc) were in the range of 0.04-0.08 (when measured in a 1-cm cell).
The QY of each sample was independently measured 3-4 times and the average value was calculated.

The nature of data set [2]: Absorption spectra and extinction coefficients of dyes. The conditions noted are these: for Extinction coefficient ε at λmax (abs): water, synthesis example, no unit. In kind it is physicochemical. The method, then:
Absorption spectra were measured at RT on a Perking Elmer Lambda 35 UV/Vis spectrophotometer. […] The stock solution was diluted (1:2000) and the absorbance was measured in a 5-cm standard quartz cell. All dye concentrations were in the range of 1.1 to 2.0×10^−7 M. The extinction coefficients were calculated according to Lambert-Beer's law.

Data set [3] in a line: Singlet oxygen quantum yield, DPBF scavenger method in ethanol. It counts as physicochemical. The conditions noted are these: measured in ethanol, 650 nm laser, ICG reference.
Method: The modified relative photochemical method of Spiller W. et al. (J. Porphyrins Phthalocyanines, 1998, V. 2, 145-158) utilizing 1,3-diphenylisobenzofuran (DPBF) as a chemical scavenger was used to determine the photosensitiser's singlet oxygen quantum yields (ΦΔ) in ethanol solutions.
Ethanolic solutions containing DPBF (10 μM) and sensitizers with absorbance (optical density) in a range between 0.09 and 0.10 at 650 nm (measured in a standard 1-cm quartz cell) were prepared. Samples were saturated with oxygen by bubbling. Next, 3 mL of the solution were placed in a 1-cm cell equipped with a stirring bar and a 10 mW, 650 nm diode laser was hermetically attached to the top of cuvette so as to avoid solvent evaporation and to provide a light beam direction from top to bottom of the cuvette. The solution in the cuvette was irradiated with the diode laser under continuous stirring for a certain time. DPBF consumption was determined by monitoring DPBF bleaching over irradiation time using absorption spectroscopy at 411 nm (extinction coefficient 22,000 M^−1 cm^−1). At least six absorption spectra were obtained for each solution at different irradiation times until the DPBF absorbance reduced at least to the 10% of the initial absorbance.
The decrease of DPBF absorbance at 411 nm versus irradiation time was plotted for each photosensitizer and the DPBF degradation rate constant (K) characterizing the reaction rate of singlet oxygen with DPBF in presence of a sensitizer was calculated.
The nature of data set [4]: Phototoxicity (glow lamp) and dark toxicity by hemolysis of bovine erythrocytes. It counts as cell-based. The settings on record: bovine, bovine erythrocytes, Glow Lamp. The method, then: (§1) Bovine erythrocytes were isolated from blood plasma stored with sodium citrate. 1 mL of bovine blood was treated at centrifuge (3,000 rpm) for 10 min to precipitate erythrocytes. The supernatant was decanted, 2 mL of physiological solution were added, treated and erythrocytes were precipitated with centrifuge. The washing procedure was repeated for 3 times and the precipitated erythrocytes were collected. […] Cells were dye-incubated for 45 minutes at 37° C. in the dark. Then the examined suspensions of cells (erythrocytes) were placed at a distance of 30-cm from a 250 W glow red-lamp equipped with a water-based heat filter and irradiated with occasional stirring. After irradiation, cells were stored at 4° C. for 15 hours. […] The hemolysis level (percentage of hemolyzed cells) was determined as the ratio of absorbances of the supernatant and a solution of 100% hemolysed cells. The 100% hemolysis was taken as the value obtained when the given number of erythrocytes were suspended in distilled water.

A further data set relates to bovine erythrocytes. Described as above. In kind it is cell-based. The conditions noted are these: Dark, 50 μM. The method, then: as §1

Several values for one entry are separate records, joined by “and”; a condition that tells them apart may be missing. Equal values may be shown once.

In data set [1] (Methanol), “1-(5-carboxypentyl)-2-[7-(4,6-diiodo-1,3,3-trimethyl-3H-2-indoliumyl)-2,4,6-heptatrienylidene]-3,3-dimethyl-5-indolinesulfonate [I-73]” yielded an Emission max. of 779 nm and a Fluorescence quantum yield of 41%. In data set [1] (methanol), the “QY (fluor)” value is 0.41. This compound showed an Absorption max. in data set [2] (Methanol) of 748 nm.

As to “1-(5-carboxypentyl)-2-[7-(4,6-diiodo-1,3,3-trimethyl-3H-2-indoliumyl)-2,4,6-heptatrienylidene]-3-methyl-3-(4-sulfobutyl)-5-indolinesulfonate [I-72]”, the Emission max. worked out at 780 nm in data set [1] (Methanol) and 777 nm in data set [1] (Water). Also, the results for the Fluorescence quantum yield in data set [1] (Methanol) and in data set [1] (Water) were 41% and 21%, respectively. For the same compound, the “QY (fluor)” value stood at 0.41 in data set [1] (methanol) and 0.21 in data set [1] (water). Besides, the “Singlet oxygen generation quantum yield ΦΔ” value in data set [3] came out at 12%. The Absorption max. in data set [2] (Methanol) and in data set [2] (Water) was 750 nm throughout. Moreover, the “Extinction Coefficient” value in data set [2] (Water) is given as 270,000 M^−1cm^−1. In data set [2], the “Extinction coefficient ε at λmax (abs)” value is recorded as 270,000.

In data set [1] (Methanol), “3-(5-carboxypentyl)-2-[7-(4,6-diiodo-1,3,3-trimethyl-2,3-dihydro-1H-2-indolyliden)-1,3,5-heptatrienyl]-1,1-dimethyl-6-sulfo-8-(1H-benzo[e]indolium)sulfo-nate [I-74]” yielded an Emission max. of 793 nm and a Fluorescence quantum yield of 22%. Further, the “QY (fluor)” value in data set [1] (methanol) is given as 0.22. For the same compound, the Absorption max. in data set [2] (Methanol) was 760 nm.

As to `CN1/C(=C\C=C2/CCCC(/C=C/C3=[N+](C)c4ccc(I)cc4C3(C)C)=C2Cl)C(C)(C)c2cc(I)ccc21.[I-]` [I-56], in data set [1] (Methanol), the Emission max. is 806 nm and the Fluorescence quantum yield turned out to be 16%. Besides, the Absorption max. in data set [2] (Methanol) was determined as 784 nm.

For the compound `CN(C)c1ccc(SC2=C(/C=C/C3=[N+](C)c4ccc(I)cc4C3(C)C)CCC/C2=C\C=C2/N(C)c3ccc(I)cc3C2(C)C)cc1.[I-]` [I-61], in data set [1] (Methanol), the Emission max. came out at 812 nm and the Fluorescence quantum yield is recorded as 14%. Besides, the Absorption max. in data set [2] (Methanol) came out at 792 nm.

Consider `CC(C)(C)C1=CC(=C/C=C/C=C/C=C/C2=[N+](CCCS(=O)(=O)[O-])c3ccc(I)cc3C2(C)CCCCCC(=O)O)C=C(C(C)(C)C)O1` (stereo not drawn) [I-68], for which, in data set [1] (Methanol), the Emission max. stood at 826 nm and the Fluorescence quantum yield turned out to be 6%. For the same compound, the Absorption max. in data set [2] (Methanol) is on record as 794 nm.

The compound `CN1\C(=C/C=C/C=C/C=C/C2=[N+](C)c3cc(I)cc(I)c3C2(C)CCCCCC(=O)O)C(C)(CCCCCC(=O)O)c2c(I)cc(I)cc21.[I-]` (stereo not drawn) [I-79, 3-(5-carboxypentyl)-2-7-[3-(5-carboxypentyl)-4,6-diiodo-1,3-dimethyl-2,3-dihydro-1H-2-indolyliden]-1,3,5-heptatrienyl-4,6-diiodo-1,3-dimethyl-3H-indolium iodide] returned a hemolysis at 60 min, 0.5 µM in data set [4] (0.5 μM, exposure 60 min) of 75%. Besides, the hemolysis at 30 min, 1 µM in data set [4] (1 μM, exposure 30 min) came out at 80%. The same compound showed a Hemolysis in the data set on bovine erythrocytes of 4%. The compound further returned an Absorption max. in data set [2] (Chloroform) of 763 nm.

With `C[N+]1=C(C=CC=CC=CC=C2N(CCCCS(=O)(=O)[O-])c3ccc(S(=O)(=O)O)cc3C2(C)C)C(CCCCCC(=O)O)c2c(I)cc(I)cc21` (stereo not drawn) [I-83, 4-(2-7-[3-(5-carboxypentyl)-4,6-diiodo-1-methyl-3H-2-indoliumyl]-2,4,6-heptatrienylidene-3,3-dimethyl-5-sulfo-2,3-dihydro-1H-1-indolyl)-1-butanesulfonate], the figures for the Emission max. in data set [1] (Conjugates with IgG (antibody)), in data set [1] (Methanol) and in data set [1] (Water) were 776 nm, 779 nm and 776 nm, respectively. Besides, the Fluorescence quantum yield in data set [1] (Methanol) is on record as 43%; in data set [1] (Water), 22%. The figures for the Absorption max. in data set [2] (Conjugates with IgG (antibody)), in data set [2] (Methanol) and in data set [2] (Water) were 755 nm, 750 nm and 748 nm, respectively.

As to `CC1(CCCCCC(=O)O)C(/C=C/C=C/C=C/C=C2\N(CCCCS(=O)(=O)O)c3ccc(S(=O)(=O)[O-])cc3C2(C)CCCCS(=O)(=O)O)=[N+](CCCS(=O)(=O)O)c2cc(I)c(I)c(I)c21` (stereo not drawn) [I-84, 4-[2-7-[3-(5-carboxypentyl)-4,5,6-triiodo-3-methyl-1-(3-sulfopro-pyl)-2,3-dihydro-1H-2-indolyliden]-1,3,5-heptatrienyl-3-methyl-5-sulfo-3-(4-sulfobutyl)-3H-1-indoliumyl]-1-butanesulfonate], the Emission max. in data set [1] (Conjugates with IgG (antibody)), in data set [1] (Phosphate buffer (pH 7.4)) and in data set [1] (Water) was 787 nm each time. This compound yielded a Fluorescence quantum yield in data set [1] (Water (PB, pH 7.4)) of 20%. The “QY (fluor)” value in data set [1] (water) is given as 0.20. Further, the values for the Absorption max. in data set [2] (Conjugates with IgG (antibody)), in data set [2] (Phosphate buffer (pH 7.4)) and in data set [2] (Water) were 762 nm, 758 nm and 758 nm, respectively. Moreover, the “Extinction coefficient ε at λmax (abs)” value in data set [2] is 270,000.

In data set [1] (Methanol), `CC1(CCCCCC(=O)N2CC[N+]3(CC2)CC[N+]2(CCNCC2)CC3)C(/C=C/C=C/C=C/C=C2\N(CCCS(=O)(=O)[O-])c3cc(I)c(I)c(I)c3C2(C)CCCCCC(=O)N2CC[N+]3(CC2)CC[N+]2(CCNCC2)CC3)=[N+](CCCS(=O)(=O)[O-])c2cc(I)c(I)c(I)c21.[Cl-].[Cl-].[Cl-]` (stereo not drawn) [I-91] yielded an Emission max. of 795 nm and a Fluorescence quantum yield of 26%. The compound also yielded an Absorption max. in data set [2] (Methanol) of 766 nm.

As to `CC1(CCCCCC(=O)NCCS(=O)(=O)O)C(/C=C/C=C/C=C/C=C2\N(CCCS(=O)(=O)O)c3cc(I)c(I)c(I)c3C2(C)CCCCCC(=O)NCCS(=O)(=O)O)=[N+](CCCS(=O)(=O)[O-])c2cc(I)c(I)c(I)c21` (stereo not drawn) [I-92], in data set [1] (Methanol), the Emission max. was determined as 794 nm and the Fluorescence quantum yield was determined as 39%. In data set [2] (Methanol), this compound displayed an Absorption max. of 764 nm.

For the compound `CN1\C(=C/C=C/C=C/C=C/C2=[N+](C)c3cc(I)c(I)c(I)c3C2(C)CCCCCC(=O)O)C(C)(CCCCCC(=O)O)c2c1cc(I)c(I)c2I.[I-]` (stereo not drawn) [I-93], the Emission max. in data set [1] (Methanol) is recorded as 783 nm; in data set [1] (Water) it was “n.f”. In data set [1] (Methanol), this compound gave a Fluorescence quantum yield of 47%. Besides, the Absorption max. in data set [2] (Methanol) is reported as 755 nm; in data set [2] (Water), 783 nm.

Take `CN1\C(=C/C=C/C=C/C=C/C2=[N+](C)c3cc(I)c(I)c(I)c3C2(C)CCCCCC(=O)N2CC[N+]3(CC2)CC[N+]2(CCNCC2)CC3)C(C)(CCCCCC(=O)N2CC[N+]3(CC2)CC[N+]2(CCNCC2)CC3)c2c1cc(I)c(I)c2I.[Cl-].[Cl-].[Cl-].[Cl-].[Cl-]` (stereo not drawn) [I-94]: the Emission max. in data set [1] (Methanol) was found to be 788 nm; in data set [1] (Water), 782 nm. The Fluorescence quantum yield in data set [1] (Methanol) came out at 38%; in data set [1] (Water) it was 1.8%. Besides, the Absorption max. in data set [2] (Methanol) was 759 nm; in data set [2] (Water) it was 695 nm and 756 nm.

Turning to `CN1/C(=C\C=C2/CCCC(/C=C/C3=[N+](C)c4cc(I)c(I)c(I)c4C3(C)C)=C2Cl)C(C)(C)c2c1cc(I)c(I)c2I.[I-]` [I-96], in data set [1] (Methanol), the Emission max. was 808 nm and the Fluorescence quantum yield was found to be 21%. Also, the Absorption max. in data set [2] (Methanol) turned out to be 787 nm.
